Earlier results as cited in patent US20060110454A1 (priority 2004, published 2006).
Counter-ions that a name gives are not always drawn.

soluble in ethanol (ethanol): about 0.5%
soluble in methanol (methanol): about 8%
soluble in water (water): more than 20%
Structure (SMILES): CCCN[C@H]1CCc2nc(N)sc2C1 [Pramipexole dihydrochloride, (S)-2-amino-4,5,6,7-tetrahydro-6-(propylamino)benzothiazole dihydrochloride monohydrate]
